What was measured:
RAW264.7 cells = assay: In vitro bone resorption assay on bovine bone slices; format: cell-based, murine; settings: miRNA transfection, 50 ng/ml RANKL, relative to control cells
Experimental: 5×10^4 pre-osteoclast cells were seeded onto 1 mm thick slices of bovine bone cut using a diamond saw and sterilized by immersion in 70% ethanol. Cells were cultured for 10 days as indicated in 6-well plates, transferred to fresh plates and washed to remove osteoclasts. Bone slices were stained in a solution of 1% toludine blue in 0.5% sodium tetraborate, destained in PBS plus 1% Triton X-100, and imaged by light microscopy.
In vitro bone resorption assay was then used to measure the effect of ectopic miRNA expression on osteoclast activity. […] Referring to this figures, scale bar represents 200 μm. Results were statistically significant with p<0.01 (**) and p<0.001 (***). […] Since these miRNAs may inhibit osteoclast differentiation or function by targeting different mRNAs, the repression of osteoclast differentiation was further examined using combinations of inhibitory miRNAs. Given that transient transfection with 10 pM of miRNA precursors was sufficient to inhibit up to approximately 90% of osteoclast differentiation, RAW264.7 cells were treated with a combination of miRNAs at a reduced concentration of 1 pM total precursors.

Mmp14 3'UTR = assay: 3'UTR luciferase reporter assay, Mmp14; format: cell-based, mouse; settings: co-transfection in HeLa
Experimental: (§1) For NFκB reporter assays the pGL4.32 [luc2P/NF-κB-RE/Hygro] vector (Promega) was co-transfected with a Renilla-luciferase plasmid into cells. After 24 hours, cells were treated with 50 ng/ml RANKL, 50 ng/ml sICAM1, or 10 ng/ml TNFα for analysis at indicated timepoints. Wildtype and mutant 3′UTRs were PCR amplified from mouse genomic DNA. The 3′UTRs were cloned into the pMIR-REPORT vector (AMBION®) downstream of firefly luciferase. Mutations in miRNA target sites were generated using the QuikChange Multi site-directed mutagenesis kit (Stratagene). 5×10^4 HeLa cells were plated in 24-well plates 24 hours prior to transfection. 200 ng of reporter plasmid was co-transfected with the renilla-luciferase control plasmid and 10 pM pre-miRNA precursor or precursor control (AMBION®) using Lipofectamine 2000 (Invitrogen). Cells were lysed 24 hours after transfection and assayed for luciferase activity using the Glomax 96 Luminometer (Promega). Primer sequences for cloning or mutagenesis are listed below:
(§2) Reporter constructs were co-transfected with pre-miRs, as well as a Renilla luciferase plasmid for normalization.

Calcr 3'UTR = assay: 3'UTR luciferase reporter assay, Calcr; format: cell-based, mouse; settings: co-transfection in HeLa
Experimental: as §1, §2

Traf6 3'UTR = assay: 3'UTR luciferase reporter assay, Traf6; format: cell-based, mouse; settings: co-transfection in HeLa
Experimental: as §1, §2

Substance	bone resorption (osteoclast activity) (RAW264.7 cells)	luciferase reporter activity, Mmp14 3'UTR (Mmp14 3'UTR)	luciferase reporter activity, Calcr 3'UTR (Calcr 3'UTR)	luciferase reporter activity, Traf6 3'UTR (Traf6 3'UTR)
miR-133a: miRNA, SEQ ID NO: 61; delivered as pre-miRNA precursor; targets Mitf and Mmp14 (UUUGGUCCCCUUCAACCAGCUA; delivered as pre-miRNA precursor, chemistry not given here; listed as Homo sapiens)	dramatically limited osteoclast activity	repressed	–	–
miR-141: miRNA, SEQ ID NO: 69; delivered as pre-miRNA precursor; targets Mitf and Calcr (UAACACUGUCUGGUAACGAUGU; delivered as pre-miRNA precursor, chemistry not given here; listed as Homo sapiens)	dramatically limited osteoclast activity	–	repressed	–
miR-190: miRNA, SEQ ID NO: 64; delivered as pre-miRNA precursor; targets Calcr (UGAUAUGUUUGAUAUAUUAGGU; delivered as pre-miRNA precursor, chemistry not given here; listed as Homo sapiens)	dramatically limited osteoclast activity	–	able to repress	–
miR-219: miRNA, SEQ ID NO: 66; delivered as pre-miRNA precursor; targets Mitf and Traf6 (UGAUUGUCCAAACGCAAUUCU; delivered as pre-miRNA precursor, chemistry not given here; listed as Homo sapiens)	dramatically limited osteoclast activity	–	–	repressed
